# Biological target: Glutamate receptor ionotropic, NMDA 1 (Rattus norvegicus, UniProt P35439)
# Assay: ChEBML_140329
# Method: In vitro affinity of compound for the glycinergic site associated with NMDA receptor was assessed by inhibition of the binding of [3H]glycine
row,SMILES,Ki [nM]
1,O=C(O)c1[nH]c2cc(Cl)cc(Cl)c2c1/C=C1\CCN(c2ccccc2)C1=O,7.5
2,O=C(O)c1[nH]c2cc(Cl)cc(Cl)c2c1/C=C1\CCCN(c2ccccc2)C1=O,7.3
